# Measurements published in patent publication US5352608A (priority 1992, dated 1994).
# Entries after “also recorded” stand apart in the source; their conditions may differ. Like-named read-outs stand apart in the source and are kept apart here.
# Legend:
# [1] = system: Rhodocyclus gelatinosus str-1; assay: Intrinsic HLR to TeO3^2- (MIC); format: cell-based
# [2] = system: Rhodobacter sphaeroides 2.4.7; assay: Intrinsic HLR to TeO3^2- (MIC); format: cell-based
# R. sphaeroides 2.4.1 [3] = assay: Hydrogen evolution from oxyanion reduction; format: cell-based, Rhodobacter sphaeroides
# R. sphaeroides MM1004 = format: cell-based, Rhodobacter sphaeroides; settings: SMM succinate
# Experimental: (§1) All Proteobacteria were grown at 30° C. with the exception of E. coli which was cultured at 37° C. on a Gyrotary shaker. Cultures of R. sphaeroides and R. gelatinosus were grown in LB, YP, or SMM containing either 0.4% succinate, 0.4% malate, or 0.4% butyrate as a carbon source. Cultures of R. capsulatus were grown in RCVB minimal medium containing 0.4% malate as a carbon source; R. rubrum was grown in SMM containing 0.4% malate, and 0.1% yeast extract. R. palustris and R. viridis were grown in SMM containing 0.4% malate, 0.1% yeast extract, and 50 μg/ml each of p-aminobenzoic acid and cyanocobalamin. […] Anaerobic-dark growth of R. sphaeroides on SMM medium containing DMSO, and photoheterotrophic growth conditions have been previously reported.
# (§2) Several growth conditions were examined to determine requirements for tellurite reduction in vivo. Table 5 indicates the growth conditions tested.
# (§3) ^a MIC were determined in SMM containing succinate at 30° C.
# (§4) ^c Supplemented with 60 mM DMSO.
# [4] = system: Rhodobacter sphaeroides RS2; assay: Intrinsic HLR to TeO3^2- (MIC); format: cell-based; settings: for MIC of RS2 lower than strain 2.4.1, 2.4.7 or WS8: approximately
# [5] = system: tellurite reductase activity, R. sphaeroides PUHA1; assay: TeO3^2- -dependent FADH2 oxidation in subcellular fractions; format: biochemical, Rhodobacter sphaeroides; settings: 100 μg/ml K2 TeO3
# [6] = system: tellurite reductase activity, R. sphaeroides BC17; assay: as above; format: biochemical, Rhodobacter sphaeroides; settings: for FADH2 oxidation: 100 μg/ml K2 TeO3
# [7] = system: tellurite reductase activity, R. sphaeroides 2.4.1; assay: as above; format: biochemical, Rhodobacter sphaeroides; settings: for FADH2 oxidation: 100 μg/ml K2 TeO3
# Rhodospirillum rubrum Ha = assay: Intrinsic HLR to TeO3^2- (MIC); format: cell-based
# [8] = system: tellurite reductase activity, R. sphaeroides PRKA^- B^-; assay: TeO3^2- -dependent FADH2 oxidation in subcellular fractions; format: biochemical, Rhodobacter sphaeroides; settings: 100 μg/ml K2 TeO3
# R. sphaeroides 2.4.1 [9] = format: cell-based, Rhodobacter sphaeroides
# [10] = system: Rhodopseudomonas palustris 1e5; assay: Intrinsic HLR to TeO3^2- (MIC); format: cell-based
# R. sphaeroides 2.4.1-Ga = assay: Intrinsic HLR to tellurite in R. sphaeroides mutants (MIC); format: cell-based, Rhodobacter sphaeroides; settings: for MIC K2 TeO3: SMM succinate
# Experimental: as §1, §2, §3, §4
# R. sphaeroides PUC705B = assay: as above; format: cell-based, Rhodobacter sphaeroides; settings: SMM succinate
# Experimental: as §1, §2, §3, §4
# R. sphaeroides 2.4.1ΔS = assay: as above; format: cell-based, Rhodobacter sphaeroides; settings: for MIC K2 TeO3: SMM succinate
# Experimental: as §1, §2, §3, §4
# R. sphaeroides PUHA1 = assay: as above; format: cell-based, Rhodobacter sphaeroides; settings: for MIC K2 TeO3: SMM succinate
# Experimental: as §1, §2, §3, §4
# R. sphaeroides PRKA^- = assay: as above; format: cell-based, Rhodobacter sphaeroides; settings: for MIC K2 TeO3: SMM succinate; for Increase in TeO3^2- sensitivity: prkA deletion
# Experimental: as §1, §2, §3, §4
# R. sphaeroides BC17 = assay: as above; format: cell-based, Rhodobacter sphaeroides; settings: for MIC K2 TeO3: SMM succinate
# Experimental: as §1, §2, §3, §4
# R. sphaeroides PRKB^- = assay: as above; format: cell-based, Rhodobacter sphaeroides; settings: for MIC K2 TeO3: SMM succinate
# Experimental: as §1, §2, §3, §4
# R. sphaeroides CFXA^- = assay: as above; format: cell-based, Rhodobacter sphaeroides; settings: for MIC K2 TeO3: SMM succinate; for Increase in TeO3^2- sensitivity: cfxA deletion
# Experimental: as §1, §2, §3, §4
# R. sphaeroides MM1006 = assay: as above; format: cell-based, Rhodobacter sphaeroides; settings: SMM succinate; aerobic; ( ) = resistance but no deposition of Te^0
# Experimental: as §1, §2, §3, §4
# R. sphaeroides PUFB1 = assay: as above; format: cell-based, Rhodobacter sphaeroides; settings: SMM succinate; aerobic; ( ) = resistance but no deposition of Te^0
# Experimental: as §1, §2, §3, §4
# [11] = system: R. sphaeroides PRKA^- B^-; assay: as above; format: cell-based, Rhodobacter sphaeroides; settings: for MIC K2 TeO3: SMM succinate
# Experimental: as §1, §2, §3, §4
# R. sphaeroides CFXB^- = assay: as above; format: cell-based, Rhodobacter sphaeroides; settings: for MIC K2 TeO3: SMM succinate
# Experimental: as §1, §2, §3, §4
# R. sphaeroides CYCA1 = assay: as above; format: cell-based, Rhodobacter sphaeroides; settings: SMM succinate; aerobic; ( ) = resistance but no deposition of Te^0
# Experimental: as §1, §2, §3, §4
# [12] = system: R. sphaeroides CFXA^- B^-; assay: as above; format: cell-based, Rhodobacter sphaeroides; settings: for MIC K2 TeO3: SMM succinate
# Experimental: as §1, §2, §3, §4
# [13] = photosynthetic and anaerobic-dark/DMSO, at least
# [14] = aerobic, ( ) = resistance but no deposition of Te^0
smiles,measurement,setting,value
O=[Te]([O-])[O-].[K+].[K+] [K2 TeO3],Resistance to tellurite in words,[1],low resistance
same,MIC K2 TeO3,"[1]; aerobic, minimal medium",5 µg/mL
same,MIC K2 TeO3,"[1]; photosynthetic, 10 W/m^2",10 µg/mL
same,MIC K2 TeO3,"[2]; aerobic, minimal medium",800 µg/mL
same,MIC K2 TeO3,"[2]; photosynthetic, 10 W/m^2",500 µg/mL
same,Gas evolved,"R. sphaeroides 2.4.1 [3]; 1 atm, 303° K., major component H2",8.37 mmol
same,Water displaced from the gas collection vessel,R. sphaeroides 2.4.1 [3]; culture grown in presence of TeO3^2-,208 mL
same,H2 evolved per mmole of Te^o deposited,R. sphaeroides 2.4.1 [3]; per mmole Te^o,approximately 11.5 mmoles
same,MIC K2 TeO3,R. sphaeroides MM1004; aerobic,800 µg/mL
same,MIC K2 TeO3,R. sphaeroides MM1004; photosynthetic 10 W/m^2,550 µg/mL
same,MIC K2 TeO3,"[4]; aerobic, minimal medium",400 µg/mL
same,"MIC of RS2 lower than strain 2.4.1, 2.4.7 or WS8",[4],approximately two-to three fold
same,"MIC of RS2 lower than strain 2.4.1, 2.4.7 or WS8",[4]; listed as tellurite,approximately two- to three-fold
same,MIC K2 TeO3,"[4]; photosynthetic, 10 W/m^2",250 µg/mL
same,FADH2 oxidation,[5]; cytoplasm,37 nmol/min/mg
same,FADH2 oxidation,[5]; membrane,28 nmol/min/mg
same,FADH2 oxidation,[5]; periplasm,3 nmol/min/mg
same,FADH2 oxidation,[6]; cytoplasm,20 nmol/min/mg
same,TeO3^2- -dependent FADH2 oxidase activity in words,[6]; in vitro,"Neither BC17 nor PUHA1, two mutants which were previously shown to be tellurite sensitive under both aerobic and anaerobic-dark/DMSO growth conditions, expressed significant levels"
same,FADH2 oxidation,[6]; membrane,51 nmol/min/mg
same,FADH2 oxidation,[6]; periplasm,2 nmol/min/mg
same,FADH2 oxidation,[7]; cytoplasm,60 nmol/min/mg
same,FADH2 oxidation,[7]; membrane,300 nmol/min/mg
same,FADH2 oxidation,[7]; periplasm,1 nmol/min/mg
same,Reductase activity in words,[7]; periplasmic and cytoplasmic fractions of all strains,Negligible reductase activity
same,Resistance to tellurite in words,Rhodospirillum rubrum Ha,low resistance
same,MIC K2 TeO3,"Rhodospirillum rubrum Ha; aerobic, minimal medium",20 µg/mL
same,MIC K2 TeO3,"Rhodospirillum rubrum Ha; photosynthetic, 10 W/m^2",10 µg/mL
same,FADH2 oxidation,[8]; membrane,200 nmol/min/mg
same,FADH2 oxidation,[8]; periplasm,3 nmol/min/mg
same,Appearance of cells / metal deposit,R. sphaeroides 2.4.1 [9],intracellular accumulation of a dense metal deposit; also recorded: produced a black deposit which did not diffuse into the medium
same,Gas evolution,R. sphaeroides 2.4.1 [9],+++ +
same,Gas evolution in words,R. sphaeroides 2.4.1 [9],Copious gas evolution
same,MIC K2 TeO3,"[10]; aerobic, minimal medium",200 µg/mL
same,MIC K2 TeO3,"[10]; photosynthetic, 10 W/m^2",100 µg/mL
same,MIC K2 TeO3,R. sphaeroides 2.4.1-Ga; aerobic,600 µg/mL
same,MIC K2 TeO3,"R. sphaeroides 2.4.1-Ga; anaerobic-dark, 60 mM DMSO",100 µg/mL
same,MIC K2 TeO3,R. sphaeroides 2.4.1-Ga; photosynthetic 10 W/m^2,450 µg/mL
same,Increase in TeO3^2- sensitivity,R. sphaeroides 2.4.1-Ga; vs wild-type,20%
same,MIC K2 TeO3,R. sphaeroides PUC705B; aerobic,850 µg/mL
same,MIC K2 TeO3,"R. sphaeroides PUC705B; anaerobic-dark, 60 mM DMSO",150 µg/mL
same,MIC K2 TeO3,R. sphaeroides PUC705B; photosynthetic 10 W/m^2,500 µg/mL
same,Effect of 42-kb plasmid deletion on HLR,R. sphaeroides 2.4.1ΔS,did not diminish HLR to TeO3^2-
same,MIC K2 TeO3,R. sphaeroides 2.4.1ΔS; aerobic,850 µg/mL
same,MIC K2 TeO3,"R. sphaeroides 2.4.1ΔS; anaerobic-dark, 60 mM DMSO",150 µg/mL
same,MIC K2 TeO3,R. sphaeroides 2.4.1ΔS; photosynthetic 10 W/m^2,600 µg/mL
same,MIC K2 TeO3,R. sphaeroides PUHA1; aerobic,< 10 µg/mL
same,MIC K2 TeO3,"R. sphaeroides PUHA1; anaerobic-dark, 60 mM DMSO",< 10 µg/mL
same,Concentration to which strain is sensitive,R. sphaeroides PUHA1; all growth conditions,10 µg/mL
same,MIC K2 TeO3,R. sphaeroides PRKA^-; aerobic,350 µg/mL
same,MIC K2 TeO3,"R. sphaeroides PRKA^-; anaerobic-dark, 60 mM DMSO",60 µg/mL
same,MIC K2 TeO3,R. sphaeroides PRKA^-; photosynthetic 10 W/m^2,100 µg/mL
same,Increase in TeO3^2- sensitivity,R. sphaeroides PRKA^-; aerobic,two-fold
same,Increase in TeO3^2- sensitivity,R. sphaeroides PRKA^-; [13],at least three- to five-fold
same,MIC K2 TeO3,R. sphaeroides BC17; aerobic,< 10 µg/mL
same,MIC K2 TeO3,"R. sphaeroides BC17; anaerobic-dark, 60 mM DMSO",< 10 µg/mL
same,Concentration to which strain is sensitive,R. sphaeroides BC17; all growth conditions,10 µg/mL
same,MIC K2 TeO3,R. sphaeroides PRKB^-; aerobic,800 µg/mL
same,MIC K2 TeO3,"R. sphaeroides PRKB^-; anaerobic-dark, 60 mM DMSO",150 µg/mL
same,MIC K2 TeO3,R. sphaeroides PRKB^-; photosynthetic 10 W/m^2,500 µg/mL
same,Diminution of HLR to TeO3^2-,R. sphaeroides PRKB^-; single mutation in prkB,10-20%
same,MIC K2 TeO3,R. sphaeroides CFXA^-; aerobic,400 µg/mL
same,MIC K2 TeO3,"R. sphaeroides CFXA^-; anaerobic-dark, 60 mM DMSO",50 µg/mL
same,MIC K2 TeO3,R. sphaeroides CFXA^-; photosynthetic 10 W/m^2,100 µg/mL
same,Increase in TeO3^2- sensitivity,R. sphaeroides CFXA^-; aerobic,two-fold
same,Increase in TeO3^2- sensitivity,R. sphaeroides CFXA^-; [13],at least three- to five-fold
same,MIC K2 TeO3,R. sphaeroides MM1006,400 µg/mL
same,MIC K2 TeO3,R. sphaeroides PUFB1,400 µg/mL
same,MIC K2 TeO3,[11]; [14],150 µg/mL
same,MIC K2 TeO3,"[11]; anaerobic-dark, 60 mM DMSO",< 10 µg/mL
same,Concentration to which strain is resistant,[11]; aerobic,< 200 µg/mL
same,MIC K2 TeO3,R. sphaeroides CFXB^-; aerobic,750 µg/mL
same,MIC K2 TeO3,"R. sphaeroides CFXB^-; anaerobic-dark, 60 mM DMSO",150 µg/mL
same,MIC K2 TeO3,R. sphaeroides CFXB^-; photosynthetic 10 W/m^2,650 µg/mL
same,Diminution of HLR to TeO3^2-,R. sphaeroides CFXB^-; single mutation in cfxB,10-20%
same,MIC K2 TeO3,R. sphaeroides CYCA1,400 µg/mL
same,MIC K2 TeO3,[12]; [14],200 µg/mL
same,MIC K2 TeO3,"[12]; anaerobic-dark, 60 mM DMSO",< 10 µg/mL
same,Concentration to which strain is resistant,[12]; aerobic,< 200 µg/mL
